Laboratory results reported in patent publication US4948894A, “8-fluoro and 7, 8, 10-trifluoro-9-(substituted)-6-oxo-6H-benzo-(C)quinolizine-5-carboxylic acids” (American Cyanamid Company, priority 1989, dated 1990).
Values after ≈ are worked out from the molar mass of the structure shown. Read-outs that look alike come from different tables or passages of the source.

Columns and labels:
Experiment in all cases: In vitro antibacterial spectrum, agar plate dilution method (MIC)
Type in all cases: cell-based
Citrobacter diversus = conditions: Citrobacter koseri; Citrobacter diversus K 82-24; Mueller-Hinton agar, 10^4 CFU, 18 hours at 35° C
Method: (§1) The in vitro antimicrobial spectrum of the compounds of the invention were determined by the agar plate dilution method with Mueller-Hinton agar and an inoculum of each test organism of approximately 10^4 colony forming units delivered by the steers replicating device. The minimal inhibitory concentration (MIC) in mcg/ml is defined as the lowest concentration of test compound that inhibited visible growth after 18 hours incubation at 35° C.

Enterobacter cloacae = conditions: 18 h, 10^4 CFU, 18 hours at 35° C
Method: as §1

Escherichia coli = conditions: 10^4 CFU, 18 hours at 35° C
Method: as §1

Klebsiella nneumoniae = conditions: Mueller-Hinton agar, 10^4 CFU, 18 hours at 35° C
Method: as §1

Morganella morganii = conditions: 18 h, 10^4 CFU, 18 hours at 35° C
Method: as §1

Proteus rettgeri = conditions: Providencia rettgeri; Proteus rettgeri IO 83-21; Mueller-Hinton agar, 10^4 CFU, 18 hours at 35° C
Method: as §1

Providencia stuartii = Providencia stuartii CMC 83-3; Mueller-Hinton agar, 10^4 CFU, 18 hours at 35° C
Method: as §1

Pseudomonas aeruginosa = conditions: Mueller-Hinton agar, 10^4 CFU, 18 hours at 35° C
Method: as §1

Serratia marcescens = conditions: 18 h, 10^4 CFU, 18 hours at 35° C
Method: as §1

Staphylococcus aureus = conditions: Mueller-Hinton agar, 10^4 CFU, 18 hours at 35° C
Method: as §1

Streptococcus faecalis = conditions: Mueller-Hinton agar, 10^4 CFU, 18 hours at 35° C
Method: as §1

SMILES: CN1CCN(c2cc3c(cc2F)c(=O)c(C(=O)O)c2ccccn23)CC1 [Example 6, 8-Fluoro-9-(4-methyl-1-piperazinyl)-6-oxo-6H-benzo[c]quinolizine-5-carboxylic acid]
- MIC (Citrobacter diversus): 4 µg/mL (≈ 11.3 µM)
- MIC (Enterobacter cloacae; Enterobacter cloacae K 84-10, Mueller-Hinton agar): 2 µg/mL (≈ 5.63 µM)
- MIC (Enterobacter cloacae; Enterobacter cloacae MOR 84-30, Mueller-Hinton agar): 16 µg/mL (≈ 45 µM)
- MIC (Enterobacter cloacae; Enterobacter cloacae VGH 84-39, Mueller-Hinton agar): 2 µg/mL (≈ 5.63 µM)
- MIC (Escherichia coli; 18 h, Escherichia coli CMC 84-50, Mueller-Hinton agar): 2 µg/mL (≈ 5.63 µM)
- MIC (Escherichia coli; 18 h, Escherichia coli D 21, Mueller-Hinton agar): 4 µg/mL (≈ 11.3 µM)
- MIC (Escherichia coli; 18 h, Escherichia coli D 22, Mueller-Hinton agar): 2 µg/mL (≈ 5.63 µM)
- MIC (Escherichia coli; 18 h, Escherichia coli MOR 84-20, Mueller-Hinton agar): 2 µg/mL (≈ 5.63 µM)
- MIC (Escherichia coli; 18 h, Escherichia coli VGH 84-19, Mueller-Hinton agar): 4 µg/mL (≈ 11.3 µM)
- MIC (Escherichia coli; ATCC25922, 18 h, Escherichia coli ATCC 25922, Mueller-Hinton agar): 4 µg/mL (≈ 11.3 µM)
- MIC (Klebsiella nneumoniae; Klebsiella nneumoniae IO 83-5): 8 µg/mL (≈ 22.5 µM)
- MIC (Klebsiella nneumoniae; Klebsiella nneumoniae MOR 84-24, read-out: MIC): 8 µg/mL (≈ 22.5 µM)
- MIC (Klebsiella nneumoniae; Klebsiella oneumoniae CMC 84-31): 8 µg/mL (≈ 22.5 µM)
- MIC (Morganella morganii; Morganella morganii CMC 84-38, Mueller-Hinton agar): 0.5 µg/mL (≈ 1.41 µM)
- MIC (Morganella morganii; Morganella morganii VGH 84-12, Mueller-Hinton agar): 4 µg/mL (≈ 11.3 µM)
- MIC (Morganella morganii; Moroanella morganii MOR 84-45, Mueller-Hinton agar): 0.5 µg/mL (≈ 1.41 µM)
- MIC (Proteus rettgeri): 1 µg/mL (≈ 2.81 µM)
- MIC (Providencia stuartii): > 16 µg/mL
- MIC (Pseudomonas aeruginosa; Pseudomonas aeruginosa CMC 83-20): > 16 µg/mL
- MIC (Pseudomonas aeruginosa; Pseudomonas aeruginosa K 84-16, read-out: MIC): > 16 µg/mL
- MIC (Pseudomonas aeruginosa; Pseudomonas aeruginosa VGH 84-3): > 16 µg/mL
- MIC (Serratia marcescens; Serratia marcescens CMC 83-74, Mueller-Hinton agar): > 16 µg/mL
- MIC (Serratia marcescens; Serratia marcescens IO 83-63, Mueller-Hinton agar): 4 µg/mL (≈ 11.3 µM)
- MIC (Serratia marcescens; Serratia marcescens MOR 84-41, Mueller-Hinton agar): 2 µg/mL (≈ 5.63 µM)
- MIC (Staphylococcus aureus; ATCC25913, Staphylococcus aureus ATCC 25913, read-out: MIC): > 16 µg/mL
- MIC (Staphylococcus aureus; Staphylococcus aureus CMC 83-131): > 16 µg/mL
- MIC (Staphylococcus aureus; Staphylococcus aureus K 82-26): > 16 µg/mL
- MIC (Staphylococcus aureus; Staphylococcus aureus VGH 84-47, read-out: MIC): > 16 µg/mL
- MIC (Streptococcus faecalis; Enterococcus faecalis, Streptococcus faecalis VCI 85-30, read-out: MIC): > 16 µg/mL
- MIC (Streptococcus faecalis; Streptococcus faecalis CMC 83-120): > 16 µg/mL
- MIC (Streptococcus faecalis; Streptococcus faecalis VGH 84-69): > 16 µg/mL
